Measurements: patent US20110263520A1, “COMPOSITION FOR USE IN CONTROLLING HARMFUL ORGANISMS THAT CONTAINS 16-KETO ASPERGILLIMIDE” (priority 2008, published 2011)
Like-named read-outs stand apart in the source and are kept apart here.

Tests used:
[1] = tested on: Frankliniella occidentalis; experiment: Foliage application test, Frankliniella occidentalis, haricot leaf disk (Reference Test Example 9); type: in vivo
From the text: A leaf disk having a diameter of 2.8 cm was cut out from haricot in pot culture, and a test solution adjusted to a predetermined concentration (50% aqueous acetone solution, with 0.05% Tween 20 added) was applied thereto. The leaf disk was air-air dried, and first instar larvae were released.

Aphis gossypii = experiment: Foliage application test for Aphis gossypii, cucumber leaf disk (Test Example 3); type: in vivo; settings: 16-keto aspergillimide 1.25 ppm alone
From the text: Test solutions adjusted to a predetermined concentration (50% aqueous acetone solution; 0.05% Tween 20 added) were applied to a leaf disk having a diameter of 2.0 cm cut out from a cucumber grown in a pot.
(§1) Colby's formula: Theoretical value (%)=100−(A×B)/100

Sogatella furcifera [2] = experiment: Foliage application test, Sogatella furcifera (Reference Test Example 7); type: in vivo
From the text: (§2) A test solution adjusted to a predetermined concentration (10% aqueous acetone solution) was applied to rice seedlings in pot culture. […] The test was duplicated.

[3] = tested on: Haemaphysalis longicornis; experiment: Tickcidal effect against Haemaphysalis longicornis, dry film in glass vial (Test Example 5); type: in vivo; settings: Haemaphysalis longicornis, 48 h, 2 days after release; for pest or weed control at 1 ppm: 16-keto aspergillimide 1 ppm alone; for pest or weed control at 2 ppm: 16-keto aspergillimide 2 ppm alone
Description: Acetone solutions (30 μl) adjusted to predetermined concentrations were placed in 4 mL-volume glass vials. The vials were placed on a shaker, and a dry film of the compound was prepared on the inner wall of the vials. The vials were dried for 24 hr or more. Larvae (10 or more heads) were released in the vials, and the vials were lidded. The vials were then left to stand in a humidistat chamber (25° C., humidity 85%, fully darkened conditions). […] The test was duplicated.
as §1

[4] = tested on: Nilaparvata lugens which is low-sensitive to imidacloprid; experiment: Foliage application test for Nilaparvata lugens, imidacloprid low-sensitive strain (Test Example 4); type: in vivo; settings: for Death rate (%): low-sensitive strain, 6 days after release
Description: (§3) Test solutions adjusted to a predetermined concentration (50% aqueous acetone solution) applied to rice seedlings in a pot for foliage application. […] The test was duplicated.
(§4) For comparison, a test was carried out in the same manner as described above, except that a Nilaparvata lugens strain which is highly sensitive to imidacloprid was used.
(§5) Regarding the origin of the test insect pests, Nilaparvata lugens which is low-sensitive to imidacloprid was an insect which had been collected outdoors in Kumamoto Prefecture, 2007, and Nilaparvata lugens which is sensitive to imidacloprid was an insect which had been collected in Kagoshima Prefecture and was then subjected to indoor successive raising.

[5] = tested on: Haemaphysalis longicornis; experiment: Tickicidal effect against Haemaphysalis longicornis on body surface of mouse (Test Example 6); type: in vivo; settings: for Death rate (%): mouse body surface, 3 days after release
Description: Skin hair on the back of mouse (ICR, male, 5 week olds) was clipped in a diameter of about 2 cm, and a 15-mL polystyrene conical tube cut to have a height of about 1.5 cm was bonded to the body surface of the mouse with an instant adhesive. Test solutions (20 μl) adjusted with ethanol were dropped on the body surface of mice within the bonded tube. After thorough drying, larvae (10 or more heads) were released within the tube, and the tube was lidded. […] The test was hexaplicated.
as §1

[6] = tested on: Trigonotylus caelestialium; experiment: Root dipping application test, Trigonotylus caelestialium (Reference Test Example 2); type: in vivo
From the text: (§6) A test solution adjusted to a predetermined concentration (10% aqueous acetone solution) was applied to the root of wheat seedlings in water culture. […] The test was duplicated.

[7] = tested on: Frankliniella occidentalis; experiment: Soil drenching application test, Frankliniella occidentalis (Reference Test Example 6); type: in vivo
From the text: A test solution adjusted to a predetermined concentration (10% aqueous acetone solution) was applied to cucumber seedlings in pot couture by soil drenching. The cucumber seedlings were allowed to stand for 4 days. A leaf disk having a diameter of 2.8 cm was then cut out from cucumber seedlings, and first instar larvae were released. […] The test was duplicated.

Nephotettix cincticeps [8] = experiment: Foliage application test, Nephotettix cincticeps (Reference Test Example 8); type: in vivo
Description: as §2
The death rate against larvae at the second instar born of Nephotettix cincticeps was calculated in the same manner as in Reference Test Example 7.

Laodelphax striatellus [9] = experiment: Foliage application test for Laodelphax striatellus (Test Example 2); type: in vivo; settings: 16-keto aspergillimide 2.5 ppm alone
From the text: as §1

Nilaparvata lugens = experiment: Soil drenching application test, Nilaparvata lugens (Reference Test Example 3); type: in vivo
From the text: (§7) A test solution adjusted to a predetermined concentration (10% aqueous acetone solution) was applied to rice seedlings in a pot by soil drenching. The rice seedlings were allowed to stand for 3 days. […] The test was duplicated.

Laodelphax striatellus [10] = experiment: Root dipping application test, Laodelphax striatellus (Reference Test Example 1); type: in vivo
From the text: as §6
As is apparent from Table 15, the systemic insecticidal activity of 16-keto aspergillimide was much higher than that of a control compound, Asperparaline A.
The 16-keto aspergillimide and Asperparaline A used in this test were obtained according to methods described in The Journal of Antibiotics, 1997, 50(10), 840-846. This is true of the following test examples.

[11] = tested on: Nilaparvata lugens which is sensitive to imidacloprid; experiment: Foliage application test for Nilaparvata lugens, imidacloprid-sensitive strain (Test Example 4, comparison); type: in vivo; settings: 6 days after release
Description: as §3, §4, §5

Sogatella furcifera [12] = experiment: Soil drenching application test, Sogatella furcifera (Reference Test Example 4); type: in vivo
Description: as §7
The death rate against larvae at the second instar born of Sogatella furcifera was calculated in the same manner as in Reference Test Example 3.

Laodelphax striatellus [13] = experiment: Laodelphax striatellus soil drenching application test (Test Example 1); settings: 16-keto aspergillimide 0.2 mg/seedling alone
Description: Test solutions adjusted to a predetermined concentration (10% aqueous acetone solution) were applied to rice seedling in a pot by soil drenching. The rice seedling was allowed to stand for 3 days. Second instar larvae were released and was then allowed to stand in a humidistat chamber (light period 16 hr−dark period 8 hr) (25° C.).
Death rate (%)={number of dead larvae/(number of survived larvae+number of dead larvae)}×100
wherein A: 100−(death rate when application was performed only with 16-keto aspergillimide); and

Nephotettix cincticeps [14] = experiment: Soil drenching application test, Nephotettix cincticeps (Reference Test Example 5); type: in vivo
Description: as §7
The death rate against second instar larvae was calculated in the same manner as in Reference Test Example 3.

[15] = tested on: larvae at the third instar born of Haemonchus contortus; settings: The Journal of Antibiotics, 1997, 50(10), 840-846; cited from earlier work
[16] = 100 ppm, rice seedlings, 3 days after release
[17] = read-out: Death rate (%), Table 9
[18] = read-out: Death rate (%), Table 10
[19] = 16-keto aspergillimide 1 μg/2 cm^2 alone
[20] = 0.5 μg/seedling, wheat seedlings, 3 days after release
[21] = 1.0 mg/seedling, rice seedlings, 3 days after release

## C[C@H]1CC(=O)N2C[C@]34C[C@]5(CC(=O)N(C)C5=O)C(C)(C)[C@@H]3C[C@]12C(=O)N4C [16-Keto aspergillimide, 16-keto aspergillimide]
[1]; 100 ppm, haricot leaf disk, 3 days after release
  Death rate (%): 100%
[1]; foliage application
  insecticidal activity by foliage application: exhibited insecticidal activity
Aphis gossypii
  Theoretical value calculated by the Colby's formula (%): 26%
Aphis gossypii; leaf disk, 3 days after release
  Death rate (%): 26%
Sogatella furcifera [2]
  insecticidal activity by foliage application: exhibited insecticidal activity
Sogatella furcifera [2]; [16]
  Death rate (%): 100%
[3]; [17]
  pest or weed control at 1 ppm: 10%
  pest or weed control at 2 ppm: 17%
[3]; [18]
  pest or weed control at 1 ppm: 14%
  pest or weed control at 2 ppm: 20%
[4]; Table 7 against Table 8
  death rate for the low-sensitive strain compared with the high-sensitive strain: the same
[4]; treatment concentration 5 ppm
  Death rate (%): 60%
[4]; treatment concentration 20 ppm
  Death rate (%): 95%
[4]; treatment concentration 50 ppm
  Death rate (%): 100%
[5]; [19]
  Theoretical value (%) by Colby's formula: 22%
  Death rate (%): 22%
[5]; 16-keto aspergillimide 2 μg/2 cm^2 alone
  Death rate (%): 57%
[5]; 16-keto aspergillimide alone
  Theoretical value (%) by Colby's formula: 57%
[6]
  systemic insecticidal activity: exhibited systemic insecticidal activity
[6]; [20]
  Death rate (%): 100%
[7]
  systemic insecticidal activity: exhibited systemic insecticidal activity
[7]; 2.0 mg/seedling, cucumber seedlings, 6 days after release
  Death rate (%): 100%
Nephotettix cincticeps [8]
  insecticidal activity in foliage application: exhibited insecticidal activity
Nephotettix cincticeps [8]; [16]
  Death rate (%): 100%
Laodelphax striatellus [9]
  Theoretical value (%) calculated by the Colby's formula: 65%
Laodelphax striatellus [9]; foliage application, 3 days after release
  Death rate (%): 65%
Nilaparvata lugens
  systemic insecticidal activity: exhibited systemic insecticidal activity
Nilaparvata lugens; [21]
  Death rate (%): 100%
Laodelphax striatellus [10]; [20]
  Death rate (%) for each amount of test chemical compound: 100%
Laodelphax striatellus [10]; Table 15
  systemic insecticidal activity compared with control compound Asperparaline A: much higher
[11]; treatment concentration 5 ppm
  Death rate (%): 95%
[11]; treatment concentration 20 ppm
  Death rate (%): 100%
[11]; treatment concentration 50 ppm
  Death rate (%): 100%
Sogatella furcifera [12]
  systemic insecticidal activity: exhibited systemic insecticidal activity
Sogatella furcifera [12]; [21]
  Death rate (%): 100%
Laodelphax striatellus [13]
  Theoretical value (%) calculated by the Colby's formula: 30%
Laodelphax striatellus [13]; soil drenching, 3 days after release
  Death rate (%): 30%
Nephotettix cincticeps [14]
  systemic insecticidal activity: exhibited systemic insecticidal activity
Nephotettix cincticeps [14]; [21]
  Death rate (%): 100%
[15]
  anthelmintic activity: anthelmintically active
